The record followed here is patent US7906300B2, “Methods for diagnosing an attention-deficit/Hyperactivity disorder” (PsychNostics, LLC, priority 2005, dated 2011).

Type in all cases: cell-based, human
The test system of assay [1] is lymphoblasts. Put plainly: Membrane potential of lymphoblasts by DiOC6(3) fluorescence intensity ratio, with/without compound. The text has this:
Three groups of immortalized lymphoblast samples were obtained from the Human Genetic Mutant Cell Repository (Coriell Institute for Medical Research, Camden N.J.). The samples are shown in Table 4 below and included six from affected (bipolar I disorder) patients (A1 through A6), six from their siblings (S1 through S6), and six from unrelated normal control subjects matched by age and sex (N1 through N6).
(§1) The membrane potentials of the bipolar I cells shown in Table 4 above (as well as in all other experiments, except where indicated) were measured using the following protocol. The cells cultured in the media described above were centrifuged at 210 g for 5 minutes at room temperature, then suspended in 3 ml of K^+-containing stock buffer (5 mM KCl, 4 mM NaHCO3, 5 mM HEPES, 134 mM NaCl, 2.3 mM CaCl2, and 5 mM glucose). The cells were counted and the desired number of cells were again suspended in the K^+-containing buffer. The membrane potentials were measured using 3,3′-dihexyloxacarbocyanine iodide DiOC6(3), a cell-permeant, voltage sensitive, green-fluorescent dye (Molecular Probes Inc. Eugene, Oreg. USA). […]
(§2) A fluorescence spectrometer (F2500 Hitachi, Japan) was used for the measurement of the membrane potential by measuring the fluorescence intensity of DiOC6(3), which is directly proportional to the membrane potential. The intensity of fluorescence was measured at an excitation wavelength of 488 nm and an output wavelength of 540 nm. […]
Membrane potential was expressed according to fluorescence intensity using the following equation: I=CV, wherein I is the fluorescence intensity of a lipophilic fluorescent dye DiOC6(3) being only one example of such a dye); V is the voltage or membrane potential; and C is a constant that can vary depending on a number of factors such as, but not limited to, temperature, lamp intensity, number of cells, concentration of the fluorescent dye, incubation time, and lipid composition of cells used. […]
Membrane potentials were also measured in K^+-free buffer to enable comparison with membrane potentials in K^+-containing buffer. […]

Assay [2] concerns lymphoblasts. Put plainly: Rate of drop in membrane potential (repolarization rate) of lymphoblasts, with/without compound. Particulars: 30 min, K+-free and K+-containing buffer. The procedure: as §1, §2
The rate of drop in membrane potential after incubation with the protein kinase C (PKC) activator, phorbol 12-myristate 13-acetate (PMA), was compared in affected cells to that of unaffected cells. The membrane potential of these cells was determined by measuring the fluorescence intensity as described above. […]

The test system of assay [3] is whole blood cells. Put plainly: Membrane potential ratio of whole blood cells, clinical trials (DiOC6(3) fluorescence). Particulars: for ratio of intensity in K+-free buffer with 30 μM ethacrynate to intensity in K+-containing buffer without ethacrynate, Median: plate reader. The procedure: Because the volume of blood required to collect enough lymphocytes was beyond that permitted by the current protocol, the membrane potential of whole blood cells was determined. The volume of whole blood required was approximately 1 ml. The blood samples were kept on ice until they were stored at 4° C. All of the samples were tested within 48 hours.
Whole blood samples drawn from patients and controls were suspended in K^+-containing buffer without ethacrynate and in K^+-free buffer with 30 μM ethacrynate or with 100 mM sorbitol. The fluorescent dye DiOC6(3) was added to both suspensions and incubated for 30 minutes. The cell suspensions loaded with the dye were centrifuged, drained and resuspended in the respective buffers. The fluorescence intensity was measured for 10 seconds and the ratio of the intensity in K^+-free buffer to the intensity in K^+-containing buffer was calculated.
Whole blood samples drawn from patients and controls were suspended both in K^+-containing buffer and in K^+-free buffer with 30 μM ethacrynate or with 100 μM sorbitol. The fluorescent dye DiOC6(3) was added to both suspensions and incubated for 30 minutes. The cell suspensions loaded with the dye were centrifuged, drained and resuspended in the respective buffers. The fluorescence intensity was measured for 10 seconds and the ratio of the intensity in K^+-free buffer to the intensity in K^+-containing buffer was calculated.
An individual patient's cell sample was tested as described herein and six to twelve ratios were calculated. These values were treated as a group and compared with a normal control group (negative control) and a bipolar group (positive control).
(§3) Cells from control, bipolar I and bipolar II individuals were compared amongst each other as described herein. Whole blood samples drawn from patients and controls and aliquots were suspended either in K^+-containing buffer without ethacrynate, or in K^+-free buffer with 30 μM ethacrynate. The fluorescent dye DiOC6(3) was added to the suspensions and incubated for 30 minutes. The cell suspensions loaded with the dye were centrifuged, drained and resuspended in the respective buffers. The fluorescence intensity was measured for 10 seconds and the ratio of the intensity in K^+-free buffer to the intensity in K^+-containing buffer was calculated. Plate Reader (PerkinsElmer Victor V) was used for intensity measurements).
as §3, with “ADHD” for “bipolar II”

The subject of assay [4] is whole blood cells. Described as above. Particulars: open trial; bipolar patients; 100 mM sorbitol; FIG. 13.

On to `CC[C@@]1([C@@H]2O[C@@H]([C@H]3O[C@@](O)(CO)[C@H](C)C[C@@H]3C)C[C@@H]2C)CC[C@H]([C@]2(C)CC[C@]3(C[C@H](O)[C@@H](C)[C@@H]([C@@H](C)[C@@H](OC)[C@H](C)C(=O)O)O3)O2)O1` [monensin], for which the “intensity ratio (membrane potential with monensin/without monensin) of affected cells compared with unaffected cells” value in the assay with lymphoblasts [1] (K+-free buffer, 10 μM monensin, 30 min, t-test P=0.009, FIG. 8) was “significantly lower”.

Turning to `CCCCCCCCCCCCCC(=O)O[C@@H]1[C@@H](C)[C@@]2(O)[C@@H](C=C(CO)C[C@]3(O)C(=O)C(C)=C[C@@H]23)[C@@H]2C(C)(C)[C@]12OC(C)=O` [PMA, phorbol 12-myristate 13-acetate], in the assay with lymphoblasts [2] (2 μM PMA, P=0.046, FIG. 10), the “relative ratio of repolarization rates in affected cells compared with unaffected cells” value is reported as “significantly lower”.

`C=C(CC)C(=O)c1ccc(OCC(=O)O)c(Cl)c1Cl` [ethacrynate]: the “relative rate of repolarization in affected cells compared with unaffected cells” value in the assay on lymphoblasts [2] (30 μM ethacrynate, P=0.041, FIG. 7) is listed as “significantly higher”. The “relative intensity ratio of affected cells compared with unaffected cells” value in the assay on lymphoblasts [1] (30 μM ethacrynate, K+-free vs K+-containing buffer, t-test P=0.009, FIG. 5) is listed as “significantly higher”. Also, in the assay on lymphoblasts [1] (K+-free buffer, 30 μM ethacrynate, t-test P=0.032, FIG. 6), the “intensity ratio (membrane potential with ethacrynate/without ethacrynate) of affected cells compared with unaffected cells” value is on record as “significantly higher”. Moreover, the “ratio of fluorescence intensity in K+-free buffer containing 30 μM ethacrynate to that in K+-containing buffer without ethacrynate, Mean” value with whole blood cells [3] (blind clinical trial, Controls) is recorded as 0.850; in the assay on whole blood cells [3] (blind clinical trial, Schizophr.), 0.870; in the assay on whole blood cells [3] (individual Patient A (diagnosed bipolar)) it was 0.766; with whole blood cells [3] (open clinical trial, Bipolars), 0.780. In addition, the “ratio of fluorescence intensity in K+-free buffer containing 30 μM ethacrynate to that in K+-containing buffer without ethacrynate, Median” value in the assay on whole blood cells [3] (blind clinical trial, Controls) worked out at 0.850. Moreover, the “ratio of intensity in K+-free buffer with 30 μM ethacrynate to intensity in K+-containing buffer without ethacrynate, Median” value with whole blood cells [3] (ADHD group) is on record as 0.808; in the assay with whole blood cells [3] (BPD I group) it was 0.606; with whole blood cells [3] (BPD II group), 0.648; in the assay with whole blood cells [3] (Negative (control) group), 0.676.

With `OC[C@@H](O)[C@@H](O)[C@H](O)[C@@H](O)CO` [sorbitol], the “fluorescence intensity ratio of bipolar cells with sorbitol in K+-free buffer, compared with ethacrynate” value with whole blood cells [4] is on record as “comparable to the results with ethacrynate”.
